The test system of the experiment is choroidal neovascularization. Put plainly: Laser-induced choroidal neovascularization (CNV) model of AMD. The experiment is classed as in vivo, mouse. The settings on record: intravitreal days 1 and 7; 10 μg AGX51E2, 40 μg Aflibercept. An excerpt: Mouse mode/s of ocular neovascularization. CNV was induced as previously described. Tobe et al., Am. J. Pathol., 153, 1641-1646 (1998). Briefly, 4-6 week-old female Id1^−/− or Id3^−/− mice and littermate control Id1^+/+ or Id3^+/+ mice (all in C57BL/6 background) had laser-induced rupture of Bruch's membrane at three locations in each eye and after 14 days mice were euthanized, eyes were removed, and choroidal flat mounts were stained with FITC-labeled Griffonia simplicifolia lectin (Vector Laboratories, Burlingame, Calif.) which selectively stains vascular cells (n=12 mice per group). Flat mounts were examined by fluorescence microscopy and the area of each CNV was measured by image analysis with Image-Pro Plus software (Media Cybernetics, Silver Spring, Md.) by an observer masked with respect to experimental groups. In other experiments, wild type 4-6 week-old, female, C57BL/6 mice had rupture of Bruch's membrane in each eye followed by intravitreal injection of 1-30 μg of AGX51 (racemic, E1 or E2) or vehicle in one eye immediately and after 7 days or mice were given twice daily i.p. injections of 500 μg of AGX51 or vehicle for 14 days (n=7-10 mice per group). The area of CNV was measured 14 days after rupture of Bruch's membrane. For Aflibercept and AGX-A treatment experiments, rupture of Bruch's membrane was carried out and then mice were treated with 40 μg of Aflibercept, 10 μg of AGX51E2, 1-5 μg of AGX51, 1-5 μg of AGX-A, DMSO or combinations. The mice were 4-6 week-old female C57BL/6. After 14 days, the mice were euthanized and CNV was measured as described above.

With “Aflibercept: clinically approved treatment for AMD, a VEGF trap”, the “CNV area, head-to-head and combination treatment” value is on record as “failed to reach statistical significance”.

The values above are taken from patent US20220356163A1, “SMALL MOLECULE INHIBITORS OF Id PROTEINS” (MEMORIAL SLOAN KETTERING CANCER CENTER, priority 2019, published 2022).
